Literature values as cited in patent US20200115358A1, “ICARIIN AND ICARITIN DERIVATIVES” (H. LEE MOFFITT CANCER CENTER AND RESEARCH INSTITUTE, INC., priority 2016, published 2020).

Test system: MDSCs

Compound | inflammatory responses associated with MDSCs
COc1ccc(-c2oc3c(CCC(C)(C)O)c(O)cc(O)c3c(=O)c2O)cc1 [ICT] | effectively inhibit
Icariin | effectively inhibit
